Measured values: patent US20100062070A1, “Pulverzed crystals of olmesartan medoxomil” (DAIICHI SANKYO COMPANY, LIMITED, priority 2007, published 2010)

Tests used:
[1] = Particle diameter measurement of milled product (HELOS&RODOS dry powder particle size analyzer); format: physicochemical; settings: evaluated by using FIG. 3
Method: The particle diameter of the milled olmesartan medoxomil obtained in Example (1) was measured under the following conditions. Apparatus: HELOS&RODOS dry powder particle size analyzer Lens: R3 Dispersive pressure: 1.5 bar Trigger condition: 2s-1000ms-k15-0.5% Feeder: VIBRI (feeding: 70%)

[2] = Measurement of dissolution ratio of pulverized olmesartan medoxomil (JP Dissolution Test Method 2, Paddle Method); format: physicochemical; settings: calculated from regression equation in FIG. 1, 30 minutes, JP-2, 200 paddle rpm
Method: According to the Method 2 of the Dissolution Test (Paddle Method) described in the 14th Revised Edition of the Japanese Pharmacopoeia, at 200 paddle revolutions per-minute using 900 mL of Japanese Pharmacopoeia Solution 2 (JP-2) for the test solution, 20 mg of milled olmesartan medoxomil prepared per 1 Bessel was added. The test solution was sampled at 30 minutes after the start of the testing, the sampled test solution was filtered through a membrane filter having a pore diameter of 0.45 μm, and the dissolution ratio of olmesartan medoximil was measured by spectrophotometer. Calculation of the dissolution ratio was conducted based on “absorbance of filtrate at 257 nm-absorbance of filtrate at 338 nm”.

particle diameter at 99% cumulative volume ([1]; required for a medicament which elutes 60% or more): ≤ 156 μm
particle diameter at 99% cumulative volume ([1]; required for a medicament which elutes 65% or more): ≤ 137 μm
particle diameter at 99% cumulative volume ([1]; required for a medicament which elutes 70% or more): ≤ 119 μm
dissolution ratio of the drug substance ([2]; desired dissolution ratio of the medicament (20 mg tablet) set to 60%): 42.93%
dissolution ratio of the drug substance ([2]; desired dissolution ratio of the medicament (20 mg tablet) set to 65%): 50.56%
dissolution ratio of the drug substance ([2]; desired dissolution ratio of the medicament (20 mg tablet) set to 70%): 58.18%
Compound: CCCc1nc(C(C)(C)O)c(C(=O)OCc2oc(=O)oc2C)n1Cc1ccc(-c2ccccc2-c2nnn[nH]2)cc1 [olmesartan medoxomil, (5-methyl-2-oxo-1,3-dioxolen-4-yl)methyl 4-(1-hydroxy-1-methylethyl)-2-propyl-1-[2′-(1H-tetrazol-5-yl)biphenyl-4-ylmethyl]imidazole-5-carboxylate]
